≈ marks a conversion by molar mass, not a printed value. Calls of active or inactive are those of the source. No cut-off for these calls is given here.
What was measured:
[1] = Cytotoxicity against human NCI-H292 cells assessed as reduction in cell viability measured after 48 hrs by resazurin dye-based fluorometric analysis; type: functional; settings: NCI-H292, 48 h
HL-60 = experiment: Ratio of EC50 for human mitoxantrone-sensitive HL60 cells to EC50 for human mitoxantrone-resistant HL60/MX2 cells; type: functional
[2] = Antiproliferative activity against human mitoxantrone-resistant HL60/MX2 cells; type: functional, cell-based; settings: HL-60
MES-SA = experiment: Ratio of EC50 for taxol-resistant human MES-SA/DX5 cells expressing MDR1 mRNA and P-gp to EC50 for taxol-sensitive human MES-SA cells; type: functional
[3] = Antiproliferative activity against taxol-resistant human MES-SA/Dx5 cells expressing MDR1 mRNA and P-gp; type: functional, cell-based
[4] = Cytotoxicity against human MDA-MB-231 cells assessed as reduction in cell viability measured after 48 hrs by resazurin dye-based fluorometric analysis; type: functional; settings: MDA-MB-231, 48 h
[5] = Cytotoxicity against mouse B16F10 cells assessed as reduction in cell viability measured after 48 hrs by resazurin dye-based fluorometric analysis; type: functional; settings: B16-F10, 48 h
Tubulin (Homo sapiens) [6] = biological target: T1, Tubulin (Homo sapiens) (UniProt P68371+Q9H4B7+P0DPH7+P68366+Q13509+Q71U36+P04350+Q3ZCM7+P07437+P68363+Q9BQE3+Q6PEY2+Q13885+Q9BVA1+Q9BUF5); experiment: Induction of microtubule depolymerization in HUVEC at 1.5 to 5 uM by turbidity spectroscopic analysis; type: cell-based
Tubulin (Homo sapiens) [7] = biological target: T1, Tubulin (Homo sapiens); experiment: Induction of microtubule depolymerization in HUVEC at 20 nM measured after 30 mins by DAPI-staining based immunofluorescence analysis; type: cell-based
[8] = Cytotoxicity against human HT-29 cells assessed as reduction in cell viability measured after 48 hrs by resazurin dye-based fluorometric analysis; type: functional; settings: Homo sapiens, HT-29, 48 h
Aspergillus fumigatus [9] = experiment: Fungicidal activity against Aspergillus fumigatus isolate 2 measured after 48 hrs by broth dilution method; type: functional; settings: isolate 2, 48 h
Candida albicans [10] = experiment: Antifungal activity against Candida albicans 90028 measured after 48 hrs by broth dilution method; type: functional; settings: Candida albicans, 90028, 48 h
[11] = Antifungal activity against Candida glabrata measured after 48 hrs by broth dilution method; type: functional; settings: Nakaseomyces glabratus
Aspergillus fumigatus [12] = experiment: Antifungal activity against Aspergillus fumigatus isolate 1 measured after 48 hrs by broth dilution method; type: functional; settings: isolate 1, 48 h
Aspergillus fumigatus [13] = experiment: Antifungal activity against Aspergillus fumigatus isolate 2 measured after 48 hrs by broth dilution method; type: functional; settings: isolate 2, 48 h
[14] = Cytotoxicity against human HT-29 cells assessed as reduction in cell viability measured after 48 hrs by resazurin dye-based fluorometric analysis relative to control; type: functional
Candida albicans [15] = experiment: Antifungal activity against Candida albicans ATCC 10231 measured after 48 hrs by broth dilution method; type: functional; settings: ATCC 10231, 48 h
[16] = Cytotoxicity against human PC3 cells assessed as reduction in cell viability measured after 48 hrs by resazurin dye-based fluorometric analysis relative to control; type: functional, PC-3; set-up: concentration or dose not given beside the values
Tubulin (Homo sapiens) [17] = biological target: T1, Tubulin (Homo sapiens); experiment: Time required for induction of microtubule dynamic instability in human MCF7 cells at IC50 for mitotic block measured after 20 hrs by immunofluorescence analysis; type: cell-based
MCF7 [18] = experiment: Antimitotic activity in human MCF7 cells assessed as decrease in microtubule polymer formation measured after 20 hrs by immunofluorescence analysis relative to control; type: functional, cell-based
Tubulin (Homo sapiens) [19] = biological target: T1, Tubulin (Homo sapiens); experiment: Induction of microtubule instability in human MCF7 cells assessed as rescue frequency at IC25 for mitotic block measured after 20 hrs by immunofluorescence analysis; type: cell-based
Tubulin (Homo sapiens) [20] = biological target: T1, Tubulin (Homo sapiens); experiment: Time required for induction of microtubule dynamic instability in human MCF7 cells at IC25 for mitotic block measured after 20 hrs by immunofluorescence analysis; type: cell-based
MCF7 [21] = experiment: Antimitotic activity in human MCF7 cells assessed as mitotic index measured after 20 hrs by DAPI-staining based fluorescence microscopic analysis; type: functional, cell-based
Tubulin (Bos taurus) = Tubulin (Bos taurus) (UniProt Q6B856+Q862L2+Q862F3); settings: 10 uM
Description: Inhibition of [3H]CLC binding to bovine brain tubulin at 10 uM measured after 120 mins in presence of GTP by scintillation counting method

Tubulin (Homo sapiens) [22] = biological target: T1, Tubulin (Homo sapiens); experiment: Induction of microtubule instability in human MCF7 cells assessed as time spent for shortening at IC25 for mitotic block measured after 20 hrs by immunofluorescence analysis; type: cell-based
MCF7 [23] = experiment: Antimitotic activity in human MCF7 cells assessed as bipolar cells with uncompressed chromosomes at mitotic block IC50 measured after 20 hrs by immunofluorescence analysis relative to control; type: functional
Tubulin (Homo sapiens) [24] = biological target: T1, Tubulin (Homo sapiens); experiment: Induction of microtubule instability in human MCF7 cells assessed as catastrophy frequency at IC25 for mitotic block measured after 20 hrs by immunofluorescence analysis; type: cell-based
Tubulin (Homo sapiens) [25] = biological target: T1, Tubulin (Homo sapiens); experiment: Induction of microtubule instability in human MCF7 cells assessed as time spent for growth at IC50 for mitotic block measured after 20 hrs by immunofluorescence analysis; type: cell-based
MCF7 [26] = experiment: Antimitotic activity in human MCF7 cells assessed as microtubule polymer at twice mitotic block IC50 measured after 20 hrs by immunofluorescence analysis relative to control; type: functional, cell-based
Tubulin (Homo sapiens) [27] = biological target: T1, Tubulin (Homo sapiens); experiment: Induction of microtubule instability in human MCF7 cells assessed as time spent for shortening at IC50 for mitotic block measured after 20 hrs by immunofluorescence analysis; type: cell-based
Tubulin (Homo sapiens) [28] = biological target: T1, Tubulin (Homo sapiens); experiment: Induction of microtubule instability in human MCF7 cells assessed as rescue frequency at IC50 for mitotic block measured after 20 hrs by immunofluorescence analysis; type: cell-based
Tubulin (Homo sapiens) [29] = biological target: T1, Tubulin (Homo sapiens); experiment: Induction of microtubule instability in human MCF7 cells assessed as catastrophy frequency at IC50 for mitotic block measured after 20 hrs by immunofluorescence analysis; type: cell-based
Tubulin (Homo sapiens) [30] = biological target: T1, Tubulin (Homo sapiens); experiment: Induction of microtubule instability in human MCF7 cells assessed as time spent for attenuation at IC50 for mitotic block measured after 20 hrs by immunofluorescence analysis; type: cell-based
Tubulin (Homo sapiens) [31] = biological target: T1, Tubulin (Homo sapiens); experiment: Induction of microtubule instability in human MCF7 cells assessed as time spent for growth at IC25 for mitotic block measured after 20 hrs by immunofluorescence analysis; type: cell-based
Tubulin (Homo sapiens) [32] = biological target: T1, Tubulin (Homo sapiens); experiment: Induction of microtubule instability in human MCF7 cells assessed as time spent for attenuation at IC25 for mitotic block measured after 20 hrs by immunofluorescence analysis; type: cell-based
[33] = biological target: Tubulin alpha (Homo sapiens) (UniProt P0DPH7+P68366+Q71U36+P68363+Q9BQE3+Q6PEY2+A6NHL2+Q9NY65); experiment: Induction of alpha-tubulin depolymerization in HUVEC at 200 nM measured after 30 mins by DAPI staining based indirect immunofluorescence analysis; type: cell-based
[34] = Antiproliferative activity against human mitoxantrone-sensitive HL60 cells; type: functional, cell-based; settings: HL-60
Jurkat [35] = experiment: Induction of apoptosis in human Jurkat cells assessed as caspase3 activation; type: functional, cell-based
[36] = Cytotoxicity against human PC3 cells assessed as reduction in cell viability measured after 48 hrs by resazurin dye-based fluorometric analysis; type: functional; settings: PC-3, 48 h
[37] = Antifungal activity against Trichophyton rubrum isolate 1 measured after 48 hrs by broth dilution method; type: functional
[38] = Antifungal activity against Trichophyton mentagrophytes isolate 2 measured after 48 hrs by broth dilution method; type: functional
Jurkat [39] = experiment: Induction of apoptosis in human Jurkat cells assessed as DNA laddering at 1 nM by gel electrophoresis; type: functional, cell-based
[40] = Antifungal activity against Trichophyton mentagrophytes isolate 1 measured after 48 hrs by broth dilution method; type: functional
[41] = Antiproliferative activity against taxol-sensitive human MES-SA cells pretreated with p-gp inhibitor cyclosporinA followed by compound addition; type: functional, cell-based
[42] = Antiproliferative activity against taxol-sensitive human MES-SA cells […]; type: functional, cell-based
[43] = tested on: Trichophyton mentagrophytes; experiment: Fungicidal activity against Trichophyton mentagrophytes isolate 1 measured after 48 hrs by broth dilution method; type: functional; settings: isolate 1, 48 h
[44] = Antifungal activity against Epidermophyton floccosum isolate 1 measured after 48 hrs by broth dilution method; type: functional
Jurkat [45] = experiment: Induction of apoptosis in human Jurkat cells assessed as PARP cleavage at 100 nM measured after 10 hrs by Western blotting; type: functional, cell-based
Trichophyton rubrum = experiment: Fungicidal activity against Trichophyton rubrum isolate 2 measured after 48 hrs by broth dilution method; type: functional; settings: isolate 2, 48 h
[46] = Antifungal activity against Trichophyton rubrum isolate 2 measured after 48 hrs by broth dilution method; type: functional
[47] = Antifungal activity against Epidermophyton floccosum isolate 2 measured after 48 hrs by broth dilution method; type: functional
[48] = Antiproliferative activity against taxol-resistant human MES-SA/Dx5 cells expressing MDR1 mRNA and P-gp pretreated with p-gp inhibitor cyclosporinA followed by compound addition; type: functional, cell-based

CC(C)(C)c1ocnc1/C=c1\[nH]c(=O)/c(=C/c2cccc(F)c2)[nH]c1=O
EC50 [1]: 14 nM | Ratio EC50 (HL-60): 0.5 | EC50 [2]: 14 nM | Ratio EC50 (MES-SA): 1.2 | IC50 [3]: 14 nM | EC50 [4]: 24 nM | EC50 [5]: 13 nM | Activity (Tubulin (Homo sapiens) [6]): Active | Activity (Tubulin (Homo sapiens) [7]): Active | EC50 [8]: 16.3 to 17.1 nM

COc1ccc(/C=c2\[nH]c(=O)/c(=C/c3nc[nH]c3C(C)(C)C)[nH]c2=O)c(OC)c1OC
MFC (Aspergillus fumigatus [9]): > 16 µg/mL | MIC (Candida albicans [10]): > 32 µg/mL | MIC [11]: > 32 µg/mL | MIC (Aspergillus fumigatus [12]): > 16 µg/mL | MIC (Aspergillus fumigatus [13]): 0.06 µg/mL (≈ 0.141 µM) | inhibition (INH) [14]: 78% | EC50 [8]: 4060 to 4800 nM | MIC (Candida albicans [15]): > 32 µg/mL | Activity [16]: 94%

COc1ccc(/C=C\c2cc(OC)c(OC)c(OC)c2)cc1O
TIME (Tubulin (Homo sapiens) [17]): 0.653 h | Activity (MCF7 [18]): Dose-dependent effect | Activity (Tubulin (Homo sapiens) [19]): 1.9 min⁻¹ | TIME (Tubulin (Homo sapiens) [20]): 0.66 h | inhibition (MCF7 [21]): Dose-dependent effect | inhibition (Tubulin (Bos taurus)): Active | TIME (Tubulin (Homo sapiens) [22]): 0.0035 h | Activity (MCF7 [23]): Active | Activity (Tubulin (Homo sapiens) [24]): 1.52 min⁻¹ | TIME (Tubulin (Homo sapiens) [25]): 0.0055 h | Activity (MCF7 [26]): Active | TIME (Tubulin (Homo sapiens) [27]): 0.00367 h | Activity (Tubulin (Homo sapiens) [28]): 2.79 min⁻¹ | Activity (Tubulin (Homo sapiens) [29]): 1.09 min⁻¹ | TIME (Tubulin (Homo sapiens) [30]): 0.00917 h | TIME (Tubulin (Homo sapiens) [31]): 0.0045 h | TIME (Tubulin (Homo sapiens) [32]): 0.0075 h

CC(C)(C)c1[nH]cnc1/C=c1\[nH]c(=O)/c(=C/c2cccc(F)c2)[nH]c1=O
Activity [33]: Active

O=C1c2c(O)ccc(O)c2C(=O)c2c(NCCNCCO)ccc(NCCNCCO)c21 [MITOXANTRONE]
EC50 [2]: 1100 to 4870 nM | EC50 [34]: 42 to 202 nM | Activity (Jurkat [35]): Dose-dependent effect

CC(C)(C)c1ocnc1/C=c1\[nH]c(=O)/c(=C/c2ccccc2)[nH]c1=O.O=C(O)C(F)(F)F
EC50 [1]: 19 nM | Ratio EC50 (HL-60): 0.6 | EC50 [2]: 14 nM | Ratio EC50 (MES-SA): 1.4 | IC50 [3]: 17 nM | EC50 [4]: 41 nM | EC50 [5]: > 2000 nM | Activity (Tubulin (Homo sapiens) [6]): Active | Activity (Tubulin (Homo sapiens) [7]): Active | inhibition (INH) [14]: 88% | EC50 [8]: 21 to 22.2 nM | EC50 [36]: 20 nM

C=CC(C)(C)c1[nH]cnc1/C=c1\[nH]c(=O)/c(=C/c2ccccc2)[nH]c1=O
MIC [37]: > 16 µg/mL | MIC [38]: > 16 µg/mL | Activity (Jurkat [39]): Active | MIC [40]: 4 µg/mL (≈ 11.5 µM) | EC50 [41]: 114 nM | EC50 [3]: 98 nM | EC50 [42]: 116 nM | MFC [43]: > 16 µg/mL | MIC [11]: > 68 µg/mL | MIC (Aspergillus fumigatus [12]): > 16 µg/mL | MIC [44]: > 16 µg/mL | Activity (Jurkat [45]): Active | MIC (Aspergillus fumigatus [13]): > 16 µg/mL | MFC (Trichophyton rubrum): > 16 µg/mL | MIC [46]: 0.25 µg/mL (≈ 0.718 µM) | inhibition (INH) [14]: 86% | EC50 [8]: 42.6 to 48 nM | EC50 [36]: 4.7 to 5.4 nM | MIC [47]: > 16 µg/mL | EC50 [48]: 88 nM

CC(C)(C)c1ocnc1/C=c1\[nH]c(=O)/c(=C/c2c(F)c(F)cc(F)c2F)[nH]c1=O
EC50 [1]: 14 nM | Ratio EC50 (HL-60): 0.4 | Ratio EC50 (MES-SA): 1.1 | IC50 [3]: 14 nM | EC50 [4]: 42 nM | EC50 [5]: > 2000 nM | Activity (Tubulin (Homo sapiens) [6]): Active | Activity (Tubulin (Homo sapiens) [7]): Active | EC50 [8]: 11 to 14.8 nM | EC50 [36]: 17 nM
